The term IC50 denotes the midpoint of a concentration-inhibition curve. As usually defined, the GI50 is the concentration at which growth is held to half of that of the control. Higher therefore signals less potent growth inhibition.

The structures appear in SMILES notation.

The first assay deals with T1, Ribonucleoside-diphosphate reductase subunit M2 (Homo sapiens, UniProt P31350).
T1 sequence (P31350 whole entry): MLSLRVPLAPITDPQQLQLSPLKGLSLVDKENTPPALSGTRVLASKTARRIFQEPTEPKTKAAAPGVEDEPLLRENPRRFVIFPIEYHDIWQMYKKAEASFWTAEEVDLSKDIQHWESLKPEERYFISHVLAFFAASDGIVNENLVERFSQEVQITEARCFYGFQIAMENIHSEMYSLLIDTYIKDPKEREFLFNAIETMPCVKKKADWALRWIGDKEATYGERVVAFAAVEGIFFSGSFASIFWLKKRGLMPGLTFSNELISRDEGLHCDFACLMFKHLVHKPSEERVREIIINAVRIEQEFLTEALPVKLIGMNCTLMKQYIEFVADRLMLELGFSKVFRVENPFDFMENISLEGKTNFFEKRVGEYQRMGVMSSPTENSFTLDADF
In words: Inhibition of human recombinant RRM2.
Conditions: not given
For `NC(=O)NO` [HYDROXYUREA], the half-inhibitory concentration (IC50) is 601 µM.

In the next assay the test system is HCT-116. In words: Growth inhibition of human HCT-116 cells. Format: functional. Particulars: pooled result: one value given for 3 cell lines, strains, targets or settings.
Consider `Cc1nc(N/N=C/c2ccc(N(C)C)cc2)sc1C(=O)NO`, for which growth was halved (GI50) at 20.8 µM. Still for that read-out and setting: the same measure for `COc1ccc(/C=N/Nc2nc(C)c(C(=O)NO)s2)cc1`: 32.8 µM; for `Cc1nc(N/N=C/c2ccc([N+](=O)[O-])cc2)sc1C(=O)NO`: 40.7 µM; for `Cc1nc(N/N=C/c2ccccc2)sc1C(=O)NO`: 23.9 µM.

As to `COc1cccc(/C=N/Nc2nc(C)c(C(=O)NO)s2)c1`, the GI50 was greater than 50 µM. Still for that read-out and setting: as for `C/C(=N\Nc1nc(C)c(C(=O)NO)s1)c1ccc(Cl)cc1`, the figure is greater than 50 µM; as for `C/C(=N\Nc1nc(C)c(C(=O)NO)s1)c1ccccc1`, greater than 50 µM; as for `Cc1nc(N/N=C/c2ccc(Cl)cc2)sc1C(=O)NO`, 21.6 µM. The same measure, in the same setting: the same measure for `Cc1nc(N/N=C/c2ccccc2O)sc1C(=O)NO`: 36.7 µM.

The values are drawn from ChEMBL document CHEMBL5550109, “Synergistic therapeutics: Co-targeting histone deacetylases and ribonucleotide reductase for enhanced cancer treatment” (Eur J Med Chem, 2024).
